# Measured values as given in article PMC11460631, “Inhibition of transient receptor potential vanilloid 3 channels by antimalarial hydroxychloroquine alleviates TRPV3-dependent dermatitis” (The Journal of Biological Chemistry, 2024).
# How the values were obtained:
# mTRPM8 = target: T1, mTRPM8 (Mus musculus, UniProt Q8R4D5); test: Whole-cell current recordings, mTRPM8; assay type: cell-based, murine
# T1 construct: YFP or GFP; expressed in transfected cells; host or cells: HEK293T
# Method: To elucidate the specificity of HCQ inhibition on TRPV3, we conducted whole-cell current recordings on other known pruritus-related TRP channels, such as hTRPA1, mTRPV1, mTRPV4, and mTRPM8 (Fig. 3, A and F). […] Because of the relatively larger inhibition of HCQ on mTRPM8 current, we tested the concentration dependence of HCQ on mTRPM8 channels.
# HEK293T cells are cultured using Dulbecco's modified Eagle's medium containing 10% fetal bovine serum and 1% penicillin-streptomycin in a cell incubator with 5% CO2 at 37 °C. Plasmids of murine TRPV1, TRPV4, TRPM8, and human TRPV3, TRPA1 are labeled with YFP or GFP as indicators for subsequent electrophysiological recordings. Complementary DNA constructs of ion channels were transiently transfected with Lipofectamine 3000 (Invitrogen). And 12 to 18 h after transient transfection, electrophysiological recordings were performed.
# Patch-clamp recordings were carried out with a HEKA EPC10 amplifier controlled by PatchMaster software (HEKA; https://www.heka.com/products/products_main.html#soft_pm) ([36]). Patch pipettes were prepared from borosilicate glass and fire-polished to the resistance of 3 to 8 MΩ by P-97 puller for whole-cell recordings. For single-channel recordings, patch pipettes were fire-polished to a higher resistance of 6 to 10 MΩ. Both bath solution and pipette solution contained 130 mM NaCl, 10 mM glucose, 0.2 mM EDTA, and 3 mM Hepes and were adjusted to pH 7.2 to 7.4 with NaOH. Whole-cell recordings and single-channel recordings were performed at ± 80 mV. The current was sampled at 10 kHz and filtered at 2.9 kHz. All recordings were performed at room temperature (25 °C). A gravity-driven system (RSC-200, Bio-Logic) with freely rotated perfusion tubes was used for the perfusion of ligands. Bath and ligand solutions were delivered through separate tubes to minimize the mixing of solutions. […]
# All data from whole-cell recordings were analyzed in Igor Pro (WaveMetrics). IC50 values were determined by fitting the Hill equation to concentration-response relationships. […]
# TRPV3 mutant W692C = target: T2, TRPV3 mutant W692C (Homo sapiens, UniProt Q8NET8, W692C); test: Whole-cell recording of gain-of-function TRPV3 mutant W692C; assay type: cell-based; settings: concentration gradients of HCQ, ± 80 mV
# T2 construct: YFP or GFP; expressed in transfected cells; host or cells: HEK293T
# T2 sequence (Q8NET8 1-790 W692C): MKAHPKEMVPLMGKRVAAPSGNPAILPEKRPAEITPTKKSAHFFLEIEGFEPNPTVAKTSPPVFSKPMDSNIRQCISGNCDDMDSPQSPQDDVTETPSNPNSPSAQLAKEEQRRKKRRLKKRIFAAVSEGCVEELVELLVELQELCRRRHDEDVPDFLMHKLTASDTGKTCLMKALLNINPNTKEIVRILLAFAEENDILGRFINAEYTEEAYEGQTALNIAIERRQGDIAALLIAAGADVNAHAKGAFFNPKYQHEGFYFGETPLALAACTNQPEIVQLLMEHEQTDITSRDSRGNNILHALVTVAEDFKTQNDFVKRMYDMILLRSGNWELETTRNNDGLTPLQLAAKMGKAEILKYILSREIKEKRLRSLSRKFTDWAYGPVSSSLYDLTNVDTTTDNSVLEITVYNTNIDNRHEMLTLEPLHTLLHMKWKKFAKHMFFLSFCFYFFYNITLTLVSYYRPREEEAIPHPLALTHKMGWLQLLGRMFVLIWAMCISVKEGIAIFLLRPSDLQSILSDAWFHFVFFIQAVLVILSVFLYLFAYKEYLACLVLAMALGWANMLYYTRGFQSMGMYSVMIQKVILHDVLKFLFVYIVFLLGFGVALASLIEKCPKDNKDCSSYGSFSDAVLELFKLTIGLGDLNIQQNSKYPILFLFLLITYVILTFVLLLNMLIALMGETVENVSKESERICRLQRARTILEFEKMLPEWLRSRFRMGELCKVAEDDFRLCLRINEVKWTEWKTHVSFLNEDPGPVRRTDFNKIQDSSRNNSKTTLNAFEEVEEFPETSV
# Method: To test the effect of HCQ on carvacrol-induced skin inflammation, we evaluated the inhibitory effect of HCQ on TRPV3 activated by carvacrol in vitro.
# Figure 5 HCQ can attenuate mice back skin lesions induced by TRPV3 agonist carvacrol.A, representative whole-cell recording of TRPV3 in response to 1 mM carvacrol (Car), the mixture of 1 mM Car, and concentration gradients of HCQ with the holding potential of ± 80 mV. B, concentration–response curve of Car and HCQ on TRPV3 channels fitted by Hill equation. Data were shown as mean ± SEM (n = 6 cells). C, representative whole-cell recording of W692C mutants in response to concentration gradients of HCQ with the holding potential of ± 80 mV. D, concentration–response curve of HCQ on W692C mutants fitted by Hill equation. Data were shown as mean ± SEM (n = 4 cells). E, paradigm of generation of AD-like mice model induced by Car. […] A 200 μl volume of drug was applied to each mouse. Green lines indicate the thickness of the epidermis. Upper panel, the scale bar represents 2 cm; bottom panel, scale bar represents 100 μm. G–I, quantification of thickness (G), erythema (H), dryness, and scaling (I), (n = 6 mice, mean ± SEM), thickness: F (3, 20) = 20.68, p < 0.0001; erythema: F (3, 20) = 55.10, p < 0.0001; dryness and scaling: F (3, 20) = 39.61, p < 0.0001 by one-way ANOVA followed using Tukey's post hoc test. […]
# T1 sequence (Q8R4D5 whole entry): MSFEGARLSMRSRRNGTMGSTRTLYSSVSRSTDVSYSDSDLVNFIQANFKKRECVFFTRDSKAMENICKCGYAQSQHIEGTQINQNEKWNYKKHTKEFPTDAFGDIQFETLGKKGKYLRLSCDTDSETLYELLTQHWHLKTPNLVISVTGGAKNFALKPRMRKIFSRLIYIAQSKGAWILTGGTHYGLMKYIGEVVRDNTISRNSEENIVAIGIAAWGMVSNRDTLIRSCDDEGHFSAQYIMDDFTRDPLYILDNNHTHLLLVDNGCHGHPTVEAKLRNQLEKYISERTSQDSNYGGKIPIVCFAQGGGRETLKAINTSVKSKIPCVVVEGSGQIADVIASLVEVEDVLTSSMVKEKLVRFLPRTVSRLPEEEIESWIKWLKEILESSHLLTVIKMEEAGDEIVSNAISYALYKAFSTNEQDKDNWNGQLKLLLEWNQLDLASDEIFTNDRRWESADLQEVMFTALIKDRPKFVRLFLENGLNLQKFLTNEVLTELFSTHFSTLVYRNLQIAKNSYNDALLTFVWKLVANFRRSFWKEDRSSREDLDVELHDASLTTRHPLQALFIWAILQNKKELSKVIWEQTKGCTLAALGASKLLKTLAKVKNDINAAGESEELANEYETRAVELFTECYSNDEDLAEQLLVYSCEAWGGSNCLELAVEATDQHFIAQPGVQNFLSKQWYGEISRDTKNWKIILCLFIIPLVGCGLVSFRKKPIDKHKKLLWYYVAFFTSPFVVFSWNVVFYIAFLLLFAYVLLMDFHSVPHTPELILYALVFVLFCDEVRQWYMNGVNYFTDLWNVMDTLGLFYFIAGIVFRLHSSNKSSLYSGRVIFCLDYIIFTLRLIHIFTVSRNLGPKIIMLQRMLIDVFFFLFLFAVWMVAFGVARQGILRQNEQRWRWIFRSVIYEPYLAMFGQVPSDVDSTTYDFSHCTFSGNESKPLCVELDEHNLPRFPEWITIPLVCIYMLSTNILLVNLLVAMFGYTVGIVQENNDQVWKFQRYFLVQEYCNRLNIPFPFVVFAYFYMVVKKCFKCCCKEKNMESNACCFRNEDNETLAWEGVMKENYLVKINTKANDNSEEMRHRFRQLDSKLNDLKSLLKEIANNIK
smiles,measurement,setting,value
"CCN(CCO)CCCC(C)Nc1ccnc2cc(Cl)ccc12 (stereo not shown) [HCQ, hydroxychloroquine]",reduction of mTRPM8 current,"mTRPM8; 100 μM HCQ, current activated by 1 mM menthol",27.94% ± 10.91%
same,IC50,"mTRPM8; concentration dependence, whole-cell, read-out: IC50 on mTRPM8 channels",263 ± 88.6 µM
same,IC50 of mTRPM8 relative to IC50 of hTRPV3,mTRPM8; selectivity ratio,more than 5 fold
same,effect on activity of gain-of-function TRPV3 mutant W692C,TRPV3 mutant W692C,inhibited
